Assay results published in PubChem BioAssay (NCI).
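A five-concentration, 48-hour dose response in 96-well plates underlies each endpoint, interpolated linearly between surrounding concentrations. At the TGI there is no net growth.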

Assays:
Assay in all cases: DTP human tumour cell line panel, 48 h
[1] = test system: HCC-2998 colon
[2] = test system: SNB-19 CNS
[3] = test system: SF-539 CNS
[4] = test system: A498 renal
[5] = test system: SF-295 CNS
[6] = test system: SNB-75 CNS
[7] = test system: UACC-257 melanoma
[8] = test system: UO-31 renal
[9] = test system: NCI-H460 lung
[10] = test system: HCT-15 colon
[11] = test system: LOX IMVI melanoma
[12] = test system: MOLT-4 leukemia
[13] = test system: DMS 273 small cell lung
[14] = test system: SF-268 CNS
[15] = test system: NCI-H23 lung
[16] = test system: SK-OV-3 ovarian
[17] = test system: SN12C renal
[18] = test system: HOP-62 NSCLC
[19] = test system: M14 melanoma
[20] = test system: SK-MEL-5 melanoma
[21] = test system: OVCAR-3 ovarian
[22] = test system: SNB-78 CNS
[23] = test system: HL-60(TB) leukemia
[24] = test system: EKVX NSCLC
[25] = test system: SR leukemia
[26] = test system: IGROV1 ovarian
[27] = test system: SK-MEL-28 melanoma
[28] = test system: DLD-1 colon
[29] = test system: HCT-116 colon
[30] = test system: U251 CNS
[31] = test system: OVCAR-5 ovarian
[32] = test system: TK-10 renal
[33] = test system: HOP-18 NSCLC
[34] = test system: UACC-62 melanoma
[35] = test system: KM12 colon
[36] = test system: A549 NSCLC
[37] = test system: HOP-92 NSCLC
[38] = test system: MALME-3M melanoma
[39] = test system: XF 498 CNS
[40] = test system: KM20L2 colon
[41] = test system: CAKI-1 renal
[42] = test system: DMS 114 small cell lung
[43] = test system: OVCAR-4 ovarian
[44] = test system: SK-MEL-2 melanoma
[45] = test system: K-562 leukemia
[46] = test system: RXF 393 renal
[47] = test system: HT29 colon
[48] = test system: OVCAR-8 ovarian
[49] = test system: RPMI-8226 leukemia
[50] = test system: CCRF-CEM leukemia
[51] = test system: COLO 205 colon
[52] = test system: M19-MEL melanoma
[53] = test system: 786-0 renal
[54] = test system: NCI-H522 lung
[55] = test system: NCI-H226 lung
[56] = test system: ACHN renal
[57] = test system: SW-620 colon
[58] = test system: T-47D breast
[59] = test system: MDA-N
[60] = test system: DU-145 prostate
[61] = test system: BT-549 breast
[62] = test system: MDA-MB-435
[63] = test system: MCF7 breast
[64] = test system: PC-3 prostate
[65] = test system: MDA-MB-231 breast
[66] = test system: HS 578T breast
[67] = test system: NCI/ADR-RES ovarian

CCOC(=O)C1=C(O)c2ccc(C)cc2C(=O)C1=O
TGI [1]: > 100 µM | TGI [2]: > 100 µM | TGI [3]: > 100 µM | TGI [4]: > 100 µM | TGI [5]: > 100 µM | TGI [6]: > 100 µM | TGI [7]: > 100 µM | TGI [8]: > 100 µM | TGI [9]: > 100 µM | TGI [10]: > 100 µM | TGI [11]: > 100 µM | TGI [12]: > 100 µM | TGI [13]: > 100 µM | TGI [14]: > 100 µM | TGI [15]: 98.8 µM | TGI [16]: > 100 µM | TGI [17]: > 100 µM | TGI [18]: > 100 µM | TGI [19]: > 100 µM | TGI [20]: > 100 µM | TGI [21]: > 100 µM | TGI [22]: > 100 µM | TGI [23]: > 100 µM | TGI [24]: > 100 µM | TGI [25]: > 100 µM | TGI [26]: > 100 µM | TGI [27]: > 100 µM | TGI [28]: > 100 µM | TGI [29]: > 100 µM | TGI [30]: > 100 µM | TGI [31]: > 100 µM | TGI [32]: > 100 µM | TGI [33]: > 100 µM | TGI [34]: > 100 µM | TGI [35]: > 100 µM | TGI [36]: > 100 µM | TGI [37]: > 100 µM | TGI [38]: > 100 µM | TGI [39]: > 100 µM | TGI [40]: > 100 µM | TGI [41]: > 100 µM | TGI [42]: > 100 µM | TGI [43]: > 100 µM | TGI [44]: > 100 µM | TGI [45]: > 100 µM | TGI [46]: > 100 µM | TGI [47]: > 100 µM | TGI [48]: > 100 µM | TGI [49]: > 100 µM | TGI [50]: > 100 µM | TGI [51]: > 100 µM | TGI [52]: 32.3 µM | TGI [53]: > 100 µM | TGI [54]: > 100 µM | TGI [55]: > 100 µM | TGI [56]: > 100 µM | TGI [57]: > 100 µM

Cc1ccccc1NC(=O)CC(=O)NNC(Sc1ccccc1)c1cc(N=Nc2ccc(Br)cc2)ccc1O (stereo not given)
TGI [58]: > 10 µM | TGI [1]: > 10 µM | TGI [2]: > 10 µM | TGI [3]: 4.73 µM | TGI [4]: 7.96 µM | TGI [5]: > 10 µM | TGI [6]: > 10 µM | TGI [7]: > 10 µM | TGI [8]: > 10 µM | TGI [9]: > 10 µM | TGI [10]: > 10 µM | TGI [11]: 9.11 µM | TGI [12]: 3.1 µM | TGI [59]: > 10 µM | TGI [14]: > 10 µM | TGI [15]: > 10 µM | TGI [16]: > 10 µM | TGI [17]: > 10 µM | TGI [18]: > 10 µM | TGI [19]: 2.63 µM | TGI [20]: 3.42 µM | TGI [60]: > 10 µM | TGI [21]: 4.91 µM | TGI [61]: > 10 µM | TGI [62]: > 10 µM | TGI [23]: 0.907 µM | TGI [24]: > 10 µM | TGI [25]: 4.07 µM | TGI [26]: > 10 µM | TGI [63]: > 10 µM | TGI [27]: > 10 µM | TGI [29]: 1.19 µM | TGI [30]: > 10 µM | TGI [64]: > 10 µM | TGI [31]: > 10 µM | TGI [32]: > 10 µM | TGI [34]: 8.65 µM | TGI [35]: > 10 µM | TGI [65]: 6.05 µM | TGI [36]: > 10 µM | TGI [37]: > 10 µM | TGI [38]: > 10 µM | TGI [66]: > 10 µM | TGI [41]: > 10 µM | TGI [43]: > 10 µM | TGI [44]: > 10 µM | TGI [45]: 7.56 µM | TGI [46]: > 10 µM | TGI [47]: > 10 µM | TGI [48]: 2.12 µM | TGI [49]: 9.06 µM | TGI [50]: > 10 µM | TGI [51]: > 10 µM | TGI [53]: > 10 µM | TGI [54]: > 10 µM | TGI [55]: > 10 µM | TGI [56]: > 10 µM | TGI [57]: > 10 µM | TGI [67]: 9.08 µM

O=c1c2nc(-c3ccccc3)oc2n(-c2ccccc2)c(=O)n1-c1ccccc1
TGI [58]: > 46.4 µM | TGI [1]: > 46.4 µM | TGI [2]: 36 µM | TGI [3]: 35.8 µM | TGI [4]: > 31.6 µM | TGI [5]: 42.4 µM | TGI [6]: 31.2 µM | TGI [7]: > 46.4 µM | TGI [8]: > 31.6 µM | TGI [9]: > 46.4 µM | TGI [10]: > 46.4 µM | TGI [11]: > 46.4 µM | TGI [12]: > 46.4 µM | TGI [59]: > 46.4 µM | TGI [14]: 39.3 µM | TGI [15]: > 46.4 µM | TGI [16]: 40.1 µM | TGI [17]: > 46.4 µM | TGI [18]: 29.7 µM | TGI [19]: > 46.4 µM | TGI [20]: > 31.6 µM | TGI [60]: > 100 µM | TGI [21]: > 46.4 µM | TGI [61]: > 46.4 µM | TGI [62]: > 46.4 µM | TGI [23]: > 100 µM | TGI [24]: > 46.4 µM | TGI [25]: > 31.6 µM | TGI [26]: 41 µM | TGI [63]: > 46.4 µM | TGI [27]: > 100 µM | TGI [29]: > 46.4 µM | TGI [30]: 33.1 µM | TGI [64]: > 46.4 µM | TGI [31]: > 46.4 µM | TGI [32]: 21.5 µM | TGI [34]: > 46.4 µM | TGI [35]: > 46.4 µM | TGI [65]: > 46.4 µM | TGI [36]: > 46.4 µM | TGI [37]: 24.4 µM | TGI [38]: > 31.6 µM | TGI [66]: 39.5 µM | TGI [41]: 18.2 µM | TGI [43]: 36.6 µM | TGI [44]: > 46.4 µM | TGI [45]: > 46.4 µM | TGI [46]: 34.8 µM | TGI [47]: > 46.4 µM | TGI [48]: 44.6 µM | TGI [49]: > 46.4 µM | TGI [50]: > 46.4 µM | TGI [51]: > 46.4 µM | TGI [53]: 31.7 µM | TGI [54]: 39.1 µM | TGI [55]: 44.1 µM | TGI [56]: > 46.4 µM | TGI [57]: > 46.4 µM | TGI [67]: > 31.6 µM
